The values below come from patent US4908360A, “1-aminoalkyl-3-oxysubstituted-4-aryl-1,3,4,5-tetr ahydro-2H-1,3-benzodiazepine-2-ones” (Hoechst-Roussel Pharmaceuticals Inc., priority 1988, dated 1990).

The test system of assay [1] is 2-phenyl-1,4-benzoquinone-induced writhing in mice. Nature of the assay: 2-phenyl-1,4-benzoquinone-induced writhing test in mice (analgesia). The assay is classed as in vivo. As to conditions: subcutaneous. From the text: Compounds of the present invention are useful as analgesic agents due to their ability to alleviate pain in mammals. […] Exptl. Biol. Med. 95,729 (1957)].

The target of assay [2] is T1, nitrendipine binding (ventricle membranes) (Rattus norvegicus, UniProt P22002).
T1 construct: These resuspension and recentrifugation steps are repeated twice more to wash the ventricle membranes; from tissue; host or cells: heart ventricle membranes of male Wistar rats
T1 sequence (P22002 whole entry, other chains not shown): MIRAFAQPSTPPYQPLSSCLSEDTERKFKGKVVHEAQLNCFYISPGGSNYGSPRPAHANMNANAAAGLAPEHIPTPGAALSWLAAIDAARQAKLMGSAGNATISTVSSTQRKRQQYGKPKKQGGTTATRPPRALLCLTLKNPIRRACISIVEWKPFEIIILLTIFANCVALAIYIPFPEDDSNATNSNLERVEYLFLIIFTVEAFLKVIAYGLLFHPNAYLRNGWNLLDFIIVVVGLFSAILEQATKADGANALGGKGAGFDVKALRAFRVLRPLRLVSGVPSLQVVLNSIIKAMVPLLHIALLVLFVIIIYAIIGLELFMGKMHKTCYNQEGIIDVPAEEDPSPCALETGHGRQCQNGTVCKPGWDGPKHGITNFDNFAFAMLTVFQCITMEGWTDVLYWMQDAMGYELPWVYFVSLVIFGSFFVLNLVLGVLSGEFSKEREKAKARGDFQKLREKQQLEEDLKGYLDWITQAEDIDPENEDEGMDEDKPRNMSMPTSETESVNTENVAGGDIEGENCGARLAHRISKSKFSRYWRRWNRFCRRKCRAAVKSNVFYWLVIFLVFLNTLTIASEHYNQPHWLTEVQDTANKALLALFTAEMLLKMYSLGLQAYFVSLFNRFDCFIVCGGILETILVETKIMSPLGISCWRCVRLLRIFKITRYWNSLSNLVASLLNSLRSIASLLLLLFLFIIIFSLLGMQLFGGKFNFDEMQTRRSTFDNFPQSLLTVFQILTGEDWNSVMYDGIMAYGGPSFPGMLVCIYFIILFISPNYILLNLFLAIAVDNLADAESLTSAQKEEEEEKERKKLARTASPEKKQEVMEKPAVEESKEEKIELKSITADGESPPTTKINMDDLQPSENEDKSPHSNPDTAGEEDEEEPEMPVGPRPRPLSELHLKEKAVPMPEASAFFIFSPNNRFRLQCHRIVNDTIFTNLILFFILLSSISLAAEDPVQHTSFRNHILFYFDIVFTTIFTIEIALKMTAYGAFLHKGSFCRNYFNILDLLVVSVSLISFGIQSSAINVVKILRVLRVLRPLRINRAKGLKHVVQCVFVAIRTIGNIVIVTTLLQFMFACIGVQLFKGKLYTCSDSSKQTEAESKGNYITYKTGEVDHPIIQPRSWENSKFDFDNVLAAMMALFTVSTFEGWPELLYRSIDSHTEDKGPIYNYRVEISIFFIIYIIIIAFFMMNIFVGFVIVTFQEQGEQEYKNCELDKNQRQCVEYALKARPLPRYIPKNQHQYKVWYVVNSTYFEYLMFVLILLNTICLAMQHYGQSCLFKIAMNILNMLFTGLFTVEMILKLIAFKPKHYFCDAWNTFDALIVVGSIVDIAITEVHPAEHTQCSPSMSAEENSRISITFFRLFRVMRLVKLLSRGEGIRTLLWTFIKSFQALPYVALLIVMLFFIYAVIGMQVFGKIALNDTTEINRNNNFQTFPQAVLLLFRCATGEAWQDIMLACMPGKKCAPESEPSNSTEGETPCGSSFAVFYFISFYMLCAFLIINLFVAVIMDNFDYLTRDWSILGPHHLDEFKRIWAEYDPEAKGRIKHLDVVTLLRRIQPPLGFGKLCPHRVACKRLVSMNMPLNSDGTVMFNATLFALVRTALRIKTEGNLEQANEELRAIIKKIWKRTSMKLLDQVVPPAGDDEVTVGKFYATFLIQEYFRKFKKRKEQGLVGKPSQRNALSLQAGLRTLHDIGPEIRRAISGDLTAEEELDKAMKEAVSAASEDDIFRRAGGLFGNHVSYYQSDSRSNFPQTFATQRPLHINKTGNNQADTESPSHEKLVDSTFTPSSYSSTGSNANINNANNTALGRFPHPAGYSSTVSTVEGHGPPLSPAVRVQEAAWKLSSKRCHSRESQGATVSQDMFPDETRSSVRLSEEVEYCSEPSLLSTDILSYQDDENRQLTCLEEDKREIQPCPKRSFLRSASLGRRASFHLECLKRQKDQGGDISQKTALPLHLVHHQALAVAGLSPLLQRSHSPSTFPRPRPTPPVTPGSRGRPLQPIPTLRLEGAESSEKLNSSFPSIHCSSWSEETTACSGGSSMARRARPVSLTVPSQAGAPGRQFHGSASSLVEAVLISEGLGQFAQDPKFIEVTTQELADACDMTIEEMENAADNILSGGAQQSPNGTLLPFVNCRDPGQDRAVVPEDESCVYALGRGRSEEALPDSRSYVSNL
T1 sequence (P54290 25-945 partner limits assumed, other chains not shown): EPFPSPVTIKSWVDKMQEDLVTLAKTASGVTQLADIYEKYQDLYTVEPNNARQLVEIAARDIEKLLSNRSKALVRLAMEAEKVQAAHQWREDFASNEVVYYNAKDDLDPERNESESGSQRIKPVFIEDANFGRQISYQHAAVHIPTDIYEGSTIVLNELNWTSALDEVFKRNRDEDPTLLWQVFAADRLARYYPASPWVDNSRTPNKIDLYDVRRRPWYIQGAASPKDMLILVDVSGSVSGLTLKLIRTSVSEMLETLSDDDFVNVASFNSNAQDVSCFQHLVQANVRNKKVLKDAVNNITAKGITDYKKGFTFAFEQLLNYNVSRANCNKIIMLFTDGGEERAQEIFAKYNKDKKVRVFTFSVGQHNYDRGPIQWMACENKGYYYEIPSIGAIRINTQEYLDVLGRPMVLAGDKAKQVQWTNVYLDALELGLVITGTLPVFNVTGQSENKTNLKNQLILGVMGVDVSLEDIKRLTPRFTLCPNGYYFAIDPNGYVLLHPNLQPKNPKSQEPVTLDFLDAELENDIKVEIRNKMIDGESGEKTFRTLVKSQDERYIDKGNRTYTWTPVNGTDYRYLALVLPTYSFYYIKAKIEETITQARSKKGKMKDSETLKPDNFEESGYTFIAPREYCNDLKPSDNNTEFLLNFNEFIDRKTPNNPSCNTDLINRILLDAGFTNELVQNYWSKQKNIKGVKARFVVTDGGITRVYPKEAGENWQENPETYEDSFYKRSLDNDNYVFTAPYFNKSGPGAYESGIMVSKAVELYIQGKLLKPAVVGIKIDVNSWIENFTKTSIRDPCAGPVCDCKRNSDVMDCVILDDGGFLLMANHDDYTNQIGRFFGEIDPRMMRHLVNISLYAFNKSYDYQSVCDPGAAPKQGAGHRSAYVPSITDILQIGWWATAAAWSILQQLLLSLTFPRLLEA
T1 sequence (P54290 946-1091 partner limits assumed, other chains not shown): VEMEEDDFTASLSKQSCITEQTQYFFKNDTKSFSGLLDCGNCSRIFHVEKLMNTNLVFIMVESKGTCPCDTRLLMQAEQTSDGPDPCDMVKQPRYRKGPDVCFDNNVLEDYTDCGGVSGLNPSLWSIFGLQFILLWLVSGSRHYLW
In words: nitrendipine binding assay (calcium ion antagonism), [3H]-nitrendipine, rat heart ventricle membranes. Conditions: 1 h, pH 7.4, 25° C., one hour; for Increase in [3H]-nitrendipine binding (%) at 20 µM: concentration 2.0 (moles) × 10^-5. Set-up: species or system Male Wistar rats. As to the method: The compounds of the present invention are also useful as calcium ion antagonists which are useful to control cardiovascular activities, including potential antihypertensive activity. Calcium ion antagonism is measured in the nitrendipine binding assay.
The nitrendipine binding assay is carried out in the following manner. The reagents employed are (1) 0.5 M tris Buffer, pH 7.4, prepared by combining 66.1 g of Tris HCl, 9.7 g of Tris base in 1 liter of distilled water and thereafter making a 1:10 dilution in distilled water; (2) [5-methyl-^3H]-Nitrendipine (70-81 Ci/mmol, obtained from New England Nuclear; and (3) Nifedipine. Tissue is prepared as follows. Male Wistar rats are killed by decapitation, hearts are removed and the ventricles are dissected away from the aorta and aortic tissue. The ventricles are rinsed and homogenized in 19 volumes of ice-cold 0.05 M Tris buffer, pH 7.4 using a Tekmar homogenizer. The homogenate is filtered through four layers of cheese cloth and centrifuged at 1,000 g for 10 minutes. The supernatant is decanted and recentrifuged at 48,000 g for 20 minutes. The resulting pellet is resuspended in the original volume of Tris buffer and recentrifuged at 48,000 g for 20 minutes. These resuspension and recentrifugation steps are repeated twice more to wash the ventricle membranes. The final pellet is resuspended in the original volume of 0.05 M Tris buffer. The assay itself employs 500 ul of ventricle membrane suspension; 50 ul of 0.5 M Tris buffer, pH 7.4; […] [^3 H]-nitrendipine; 20 μl of candidate drug; 380 μl of water in a test tube and is carried out in a darkened room. The test tubes are incubated for one hour at 25° C. […] The filters are washed three times with 5 ml of ice-cold 0.05 M Tris buffer, pH 7.4 and counted in 10 ml of Liquiscint scintillation cocktail. Specific binding is determined by the difference of total binding and binding in the presence of 0.1 μM nifedipine and is roughly 70-75% of the total binding. […] IC50 values for the competing drug are calculated by log-probit analysis of the data.

As to `CN1CC[C@@]23CCCC[C@@H]2[C@@H]1Cc1ccc(O)cc13` [dextrorphan, reference compound], the “Inhibition in Writhing (%)” value in assay [1] (15.1 mg/kg of body weight) worked out at 50%. Consider `CON1C(=O)N(CCCN(C)C)c2ccccc2CC1c1ccccc1` (racemic) [(±) -1-[3-(N,N-Dimethylamino)propyl]-3-methoxy-4-phenyl-1,3,4,5-tetrahydro-2H-1,3-benzodiazepine-2-one], for which the “Inhibition in Writhing (%)” value in assay [1] (20 mg/kg of body weight) is 37%. Further, the Increase in [3H]-nitrendipine binding (%) at 20 µM in assay [2] worked out at 25.7%. For `CON1C(=O)N(CCN(C)C)c2ccccc2CC1c1ccccc1` (racemic) [(±) -1-[2-(N,N-dimethylamino)ethyl]-3-methoxy-4-phenyl-1,3,4,5-tetrahydro-2H-1,3-benzodiazepine-2-one], the “Inhibition in Writhing (%)” value in assay [1] (20 mg/kg of body weight) was 37%. The Increase in [3H]-nitrendipine binding (%) at 20 µM in assay [2] is 27.6%.

As to `COc1ccc([C@@H]2Sc3ccccc3N(CCN(C)C)C(=O)[C@@H]2OC(C)=O)cc1` [diltiazem, reference compound], the Increase in [3H]-nitrendipine binding (%) at 10 µM in assay [2] (concentration 1.0 (moles) × 10^-5, standard) stood at 85%.
